Series [1] deals with T1, GSK3a (GST-full length GSK3a) (Homo sapiens, UniProt P49840).
T1 construct: GST-full length GSK3a [SignalChem G08-10G]; purchased SignalChem G08-10G
As to the kind of experiment: GSK3a TR-FRET kinase inhibition assay. The series is classed as biochemical. An outline of the steps: (§1)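 GST-tagged full-length human kinase (1 nM), pre-incubated 30 min with compound, then reacted 100 min at ambient temperature at pH 7.5 with 200 nM biotinylated phospho-S645 glycogen synthase 631–650 peptide and ATP at 2 μM–1 mM. After EDTA quench, Tb-pSer641 antibody/streptavidin-d2 TR-FRET 665/615 ratio fitted for IC50.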

Series [2] concerns MDR1-MDCK cell monolayers. Put plainly: MDR1/MDCK permeability assay. The series is classed as in vitro ADME. The note with it: Table 3; for MDCK Permeability (MDR1-MDCK); Mean; Papp(A-B) (10^−6 cm/s): A to B; for MDCK Permeability (MDR1-MDCK); Mean; Papp(B-A) (10^−6 cm/s): B to A; for MIDCK Permeability (MDR1-MDCK); Mean; P. Ratio(B-A/A-B) Efflux Ratio: Papp B-A/A-B. An excerpt:
The MDR1/MDCK assay is run at WuXi and Absorption Systems. This assay is used to determine the blood-brain barrier (BBB) penetration potential of a test compound using MDR1-MDCK cell monolayers. Catalog number EA203.
• The percent recovery of the test compound from the Transwell® wells containing MDR1-MDCK cell monolayers • The apparent permeability (Papp) in both directions • The efflux ratio (Papp B to A)/(Papp A to B) • The blood-brain barrier penetration potential classification: • High when • Papp A to B≥3.0×10^−6 cm/s, and efflux<3.0 • Moderate when • Papp A to B≥3.0×10^−6 cm/s, and 10>efflux≥3.0 • Low when either • Papp A to B≥3.0×10^−6 cm/s, and […], or when • Papp A to B<[…].
• Test compound at 5 μM in HBSSg with maximum DMSO concentration not greater than 1%.
• Confluent monolayers of MDR1-MDCK cells, 7 to 11 days old.
• Receiver well with 1% BSA in modified Hanks buffer (HBSSg) • Apical and basolateral side at pH 7.4 • Dose two monolayers in each direction (N=2) • Dose apical side for (A to B) assessment • Dose basolateral side for (B to A) assessment • Sample both apical and basolateral sides at 120 minutes • Determine the concentrations of test compound using a generic LC-MS/MS method with a minimum 4 point calibration curve.
• The quality of the cell monolayer batch is verified using control compounds before monolayers are released for use • The quality of each monolayer used in the assay is verified by a TEER measurement and by calculating the Papp for a control compound.

The target of series [3] is T2, GSK3b (GST-full length GSK3b) (Homo sapiens, UniProt P49841).
T2 construct: GST-full length GSK3b: [SignalChem G08-9G]; purchased SignalChem G08-9G
T2 sequence (P49841 whole entry): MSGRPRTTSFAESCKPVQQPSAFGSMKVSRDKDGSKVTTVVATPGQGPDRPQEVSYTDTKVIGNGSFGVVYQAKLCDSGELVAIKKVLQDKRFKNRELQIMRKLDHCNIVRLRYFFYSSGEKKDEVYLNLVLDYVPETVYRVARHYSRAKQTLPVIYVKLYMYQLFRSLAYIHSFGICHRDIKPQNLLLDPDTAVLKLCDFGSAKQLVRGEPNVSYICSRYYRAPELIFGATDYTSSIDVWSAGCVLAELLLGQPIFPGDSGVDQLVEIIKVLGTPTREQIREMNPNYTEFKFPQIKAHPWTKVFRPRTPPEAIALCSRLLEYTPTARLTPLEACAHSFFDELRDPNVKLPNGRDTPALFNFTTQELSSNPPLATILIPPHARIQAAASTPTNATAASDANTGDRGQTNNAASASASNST
As to the kind of experiment: GSK3b TR-FRET kinase inhibition assay. Type of series: biochemical. An outline of the steps: as §1
In general terms: TR-FRET usually uses a lanthanide donor and a delayed reading to cut background.

[4] abbreviates: 1 mM ATP, Table 3, read-out: GSK3a TR-FRET 1 mM ATP Average IC50.
The mark [5] stands for this setting: 1 mM ATP, Table 3, read-out: GSK3b TR-FRET 1 mM ATP Average IC50.
The mark [6] stands for this setting: 4 μM ATP, read-out: GSK3α TR-FRET 4 μM ATP GMean IC50.
Setting [7] is: 2 μM ATP, read-out: GSK3β TR-FRET 2 μM ATP GMean IC50.

Like-named read-outs stand apart in the source and are kept apart here.

T1 sequence (P49840 whole entry): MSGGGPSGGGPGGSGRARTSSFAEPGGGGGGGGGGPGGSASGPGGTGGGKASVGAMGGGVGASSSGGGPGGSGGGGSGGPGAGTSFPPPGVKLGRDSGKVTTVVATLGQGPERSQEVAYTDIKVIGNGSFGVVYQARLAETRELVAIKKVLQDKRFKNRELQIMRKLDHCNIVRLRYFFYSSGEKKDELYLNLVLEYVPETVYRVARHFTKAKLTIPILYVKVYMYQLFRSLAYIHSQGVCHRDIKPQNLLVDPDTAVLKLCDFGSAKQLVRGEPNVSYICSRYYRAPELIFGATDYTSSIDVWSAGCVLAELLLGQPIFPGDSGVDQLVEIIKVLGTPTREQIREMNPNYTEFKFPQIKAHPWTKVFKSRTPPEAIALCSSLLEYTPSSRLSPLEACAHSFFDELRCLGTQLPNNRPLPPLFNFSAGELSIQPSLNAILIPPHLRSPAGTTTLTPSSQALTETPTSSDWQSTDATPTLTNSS

For the compound `CC1(C)CC(=O)C2=C(C1)Nc1nccc(C#N)c1C2(C)c1ccccc1` (single isomer, unassigned) [Compound 108A], in series [1] (setting [4]), the IC50 is 100 to 1000 nM. Further, in series [2], the “MDCK Permeability (MDR1-MDCK); Mean; Papp(A-B) (10^−6 cm/s)” value is reported as 18 10^−6 cm/s, the “MDCK Permeability (MDR1-MDCK); Mean; Papp(B-A) (10^−6 cm/s)” value was 56 10^−6 cm/s and the “MIDCK Permeability (MDR1-MDCK); Mean; P. Ratio(B-A/A-B) Efflux Ratio” value amounted to 3.2. Moreover, the IC50 in series [3] (setting [5]) was 100 to 1000 nM.

`CC1(C)CC(=O)C2=C(C1)Nc1ncc(F)c(C#N)c1C2(C)c1ccccc1` (single isomer, unassigned) [Compound 121A]: the half-inhibitory concentration (IC50) in series [1] (setting [4]) is not above 100 nM. For the same compound, in series [2], the “MDCK Permeability (MDR1-MDCK); Mean; Papp(A-B) (10^−6 cm/s)” value is 22 10^−6 cm/s, the “MDCK Permeability (MDR1-MDCK); Mean; Papp(B-A) (10^−6 cm/s)” value is given as 63 10^−6 cm/s and the “MIDCK Permeability (MDR1-MDCK); Mean; P. Ratio(B-A/A-B) Efflux Ratio” value is reported as 2.9. The IC50 in series [3] (setting [5]) was not above 100 nM.

In the case of `CC1(C)CC(=O)C2=C(C1)Nc1ncc(F)cc1C2(C)c1cccc(S(C)(=O)=O)c1` (single isomer, unassigned) [Compound 139A], the IC50 in series [1] (setting [4]) was not above 100 nM. Besides, in series [2], the “MDCK Permeability (MDR1-MDCK); Mean; Papp(A-B) (10^−6 cm/s)” value is given as 0.52 10^−6 cm/s, the “MDCK Permeability (MDR1-MDCK); Mean; Papp(B-A) (10^−6 cm/s)” value was 75 10^−6 cm/s and the “MIDCK Permeability (MDR1-MDCK); Mean; P. Ratio(B-A/A-B) Efflux Ratio” value amounted to 144. Also, the IC50 in series [3] (setting [5]) was not above 100 nM.

For `CCC1(c2cccc(C(C)C)c2)C2=C(CC(C)(C)CC2=O)Nc2ncccc21` (single isomer, unassigned) [Compound 1011A], the IC50 in series [1] (setting [6]) and in series [3] (setting [7]) was more than 5000 nM throughout.

Take `CCC1(c2cccc(C(F)(F)F)c2)C2=C(CC(C)(C)CC2=O)Nc2ncccc21` (single isomer, unassigned) [Compound 1014A]: the values for the IC50 in series [1] (setting [6]) and in series [3] (setting [7]) were 1000 to 5000 nM and more than 5000 nM, respectively.

Consider `CCC1(c2cccc(C(F)(F)F)c2)C2=C(CC(C)(C)CC2=O)Nc2ncccc21` (single isomer, unassigned) [Compound 1014B], for which the 50% inhibitory concentration (IC50) in series [1] (setting [6]) is not above 100 nM; in series [3] (setting [7]), 100 to 1000 nM.

Consider `CCC1(c2cccc(-c3cccnc3)c2)C2=C(CC(C)(C)CC2=O)Nc2ncccc21` (single isomer, unassigned) [Compound 1015B], for which the IC50 in series [1] (setting [6]) was 1000 to 5000 nM; in series [3] (setting [7]), more than 5000 nM.

`CCC1(c2cccc(-c3ccccn3)c2)C2=C(CC(C)(C)CC2=O)Nc2ncccc21` (single isomer, unassigned) [Compound 1016B]: the IC50 is 1000 to 5000 nM in series [1] (setting [6]) and more than 5000 nM in series [3] (setting [7]).

Consider `CCC1(c2cccc(-c3ccncc3)c2)C2=C(CC(C)(C)CC2=O)Nc2ncccc21` (single isomer, unassigned) [Compound 1017B], for which the IC50 in series [1] (setting [6]) and in series [3] (setting [7]) was more than 5000 nM each time.

Turning to `CCC1(c2cccc(-c3cnn(C)c3)c2)C2=C(CC(C)(C)CC2=O)Nc2ncccc21` (single isomer, unassigned) [Compound 1018A], the IC50 in series [1] (setting [6]) and in series [3] (setting [7]) was more than 5000 nM in each case.

As to `CCC1(c2cccc(-c3cnn(C)c3)c2)C2=C(CC(C)(C)CC2=O)Nc2ncccc21` (single isomer, unassigned) [Compound 1018B], the IC50 in series [1] (setting [6]) and in series [3] (setting [7]) was not above 100 nM throughout.

In the case of `CCC1(c2cccc(-c3ccnn3C)c2)C2=C(CC(C)(C)CC2=O)Nc2ncccc21` (single isomer, unassigned) [Compound 1019B], the IC50 in series [1] (setting [6]) and in series [3] (setting [7]) was more than 5000 nM in each case.

As for `CCC1(c2cccc(-c3ccncc3C)c2)C2=C(CC(C)(C)CC2=O)Nc2ncccc21` (single isomer, unassigned) [Compound 1020A], the figures for the IC50 in series [1] (setting [6]) and in series [3] (setting [7]) were 1000 to 5000 nM and more than 5000 nM, respectively.

For the compound `CCC1(c2cccc(-c3ccnc(C)c3)c2)C2=C(CC(C)(C)CC2=O)Nc2ncccc21` (single isomer, unassigned) [Compound 1021A], the concentration for half-maximal inhibition (IC50) in series [1] (setting [6]) and in series [3] (setting [7]) was more than 5000 nM in each case.

For `CCC1(c2cccc(-c3ccnc(C)c3)c2)C2=C(CC(C)(C)CC2=O)Nc2ncccc21` (single isomer, unassigned) [Compound 1021B], the IC50 in series [1] (setting [6]) and in series [3] (setting [7]) was 100 to 1000 nM each time.

As to `CCC1(c2cccc(-c3cnnc(C)c3)c2)C2=C(CC(C)(C)CC2=O)Nc2ncccc21` (single isomer, unassigned) [Compound 1022A], the IC50 in series [1] (setting [6]) and in series [3] (setting [7]) was 100 to 1000 nM throughout.

Take `CCC1(c2cccc(-c3cnnc(C)c3)c2)C2=C(CC(C)(C)CC2=O)Nc2ncccc21` (single isomer, unassigned) [Compound 1022B]: the IC50 in series [1] (setting [6]) and in series [3] (setting [7]) was more than 5000 nM each time.

For the compound `CCC1(c2cccc(-c3cn(C)nc3C)c2)C2=C(CC(C)(C)CC2=O)Nc2ncccc21` (single isomer, unassigned) [Compound 1023B], the IC50 was 100 to 1000 nM in series [1] (setting [6]) and 1000 to 5000 nM in series [3] (setting [7]).

With `CCC1(c2cccc(-c3cc(C)nn3C)c2)C2=C(CC(C)(C)CC2=O)Nc2ncccc21` (single isomer, unassigned) [Compound 1024A], the IC50 was 1000 to 5000 nM in series [1] (setting [6]) and more than 5000 nM in series [3] (setting [7]).

As for `CCC1(c2cccc(-c3ccnn3C)c2)C2=C(CC(C)(C)CC2=O)Nc2ncc(F)cc21` (single isomer, unassigned) [Compound 1025B], the concentration for half-maximal inhibition (IC50) in series [1] (setting [6]) was 100 to 1000 nM; in series [3] (setting [7]) it was more than 5000 nM.

Consider `CCC1(c2cccc(-c3cc(C)ncc3C)c2)C2=C(CC(C)(C)CC2=O)Nc2ncccc21` (single isomer, unassigned) [Compound 1027A], for which the IC50 in series [1] (setting [6]) and in series [3] (setting [7]) was more than 5000 nM in each case.

As for `CCC1(c2cccc(-c3ccncc3OC)c2)C2=C(CC(C)(C)CC2=O)Nc2ncccc21` (single isomer, unassigned) [Compound 1028A], the IC50 in series [1] (setting [6]) is 1000 to 5000 nM; in series [3] (setting [7]), more than 5000 nM.

With `CCC1(c2cccc(-c3ccncc3OC)c2)C2=C(CC(C)(C)CC2=O)Nc2ncccc21` (single isomer, unassigned) [Compound 1028B], the IC50 in series [1] (setting [6]) and in series [3] (setting [7]) was not above 100 nM throughout.

With `CCC1(c2cccc(-c3ccncc3C)c2)C2=C(CC(C)(C)CC2=O)Nc2ncc(F)cc21` (single isomer, unassigned) [Compound 1031A], the IC50 in series [1] (setting [6]) and in series [3] (setting [7]) was 100 to 1000 nM each time.

Take `CCC1(c2cccc(-c3cn(C)nc3C)c2)C2=C(CC(C)(C)CC2=O)Nc2ncc(F)cc21` (single isomer, unassigned) [Compound 1032A]: the IC50 is not above 100 nM in series [1] (setting [6]) and 100 to 1000 nM in series [3] (setting [7]).

Consider `CCC1(c2cccc(-c3cc(C)nn3C)c2)C2=C(CC(C)(C)CC2=O)Nc2ncc(F)cc21` (single isomer, unassigned) [Compound 1033A], for which the IC50 in series [1] (setting [6]) was 1000 to 5000 nM; in series [3] (setting [7]) it was more than 5000 nM.

With `CCC1(c2cccc(-c3cc(C)nn3C)c2)C2=C(CC(C)(C)CC2=O)Nc2ncc(F)cc21` (single isomer, unassigned) [Compound 1033B], the IC50 in series [1] (setting [6]) and in series [3] (setting [7]) was not above 100 nM each time.

On to `CCC1(c2cccc(-c3ccnc4c3CCC4)c2)C2=C(CC(C)(C)CC2=O)Nc2ncccc21` (single isomer, unassigned) [Compound 1034A], for which the IC50 in series [1] (setting [6]) and in series [3] (setting [7]) was more than 5000 nM each time.

Consider `CCC1(c2cccc(-c3ccnc(C)c3C)c2)C2=C(CC(C)(C)CC2=O)Nc2ncc(F)cc21` (single isomer, unassigned) [Compound 1035A], for which the IC50 in series [1] (setting [6]) and in series [3] (setting [7]) was 1000 to 5000 nM throughout.

With `CCC1(c2cccc(-c3ccnc(C)c3C)c2)C2=C(CC(C)(C)CC2=O)Nc2ncc(F)cc21` (single isomer, unassigned) [Compound 1035B], the IC50 in series [1] (setting [6]) and in series [3] (setting [7]) was 1000 to 5000 nM throughout.

With `CCC1(c2cccc(-c3ccncc3OC)c2)C2=C(CC(C)(C)CC2=O)Nc2ncc(F)cc21` (single isomer, unassigned) [Compound 1037A], the IC50 in series [1] (setting [6]) and in series [3] (setting [7]) was 1000 to 5000 nM each time.

Take `CCC1(c2cccc(-c3ccnc4c3CCCC4)c2)C2=C(CC(C)(C)CC2=O)Nc2ncccc21` (single isomer, unassigned) [Compound 1039A]: the IC50 in series [1] (setting [6]) and in series [3] (setting [7]) was 100 to 1000 nM in each case.

On to `CC1(C)CC(=O)C2=C(C1)Nc1ncccc1C2c1ccccc1` (stereo not drawn) [Compound C1, reference compound], for which the IC50 in series [1] (setting [6]) and in series [3] (setting [7]) was more than 5000 nM in each case.

One may read the IC50 as the concentration that gives 50% inhibition.

(Values after patent US20260103465A1, “GLYCOGEN SYNTHASE KINASE 3 INHIBITORS AND USES THEREOF” (The Broad Institute, Inc., priority 2023, published 2026).)
